Tests used:
[1] = system: hMet-S45Y-β-catenin HCC model; assay: GC-1 diet in hMet-S45Y-β-catenin HCC model; type: in vivo, mice; conditions: for increase in gene expression of deiodinase (RT-PCR, liver): p<0.001
Description: SBTT plasmids and HTVI have been described previously (Tao et al., Hepatology 2016, 64:1587-605). Briefly, […] pT3-EF5α-hMet-V5 and pT3-EF5α-S45Y-β-catenin-Myc combination along with the transposase in a ratio of 25:1 were diluted in 2 ml of normal saline (0.9% NaCl), filtered through 0.22 μm filter (Millipore), and injected into the lateral tail vein of 23 FVB mice that were around 6-week-old, in 5-7 seconds. These mice are referred henceforth as hMet-mutant-β-catenin mice. Four weeks after injection, hMet-mutant-β-catenin mice were randomized into two groups. One group was kept on basal diet (n=12) and another group was switched to GC-1-supplemented diet (5 mg/kg of diet, Medchem Express) (n=11). Animals on control diet were sacrificed at either 21 days (n=8) or 10 days (n=4) after initiation of diet. Similarly, animals on GC-1-diet were sacrificed at either 21 days (n=7) or 10 days (n=4) after initiation of the diet. The animals were given access to food and water ad libitum with a 12-hour light/dark daily cycle. One intraperitoneal injection of BrdU was performed on day 9 during 10 days of GC-1 or basal diet treatment and livers were harvested 24 hours later. Guidelines for the Care and Use of Laboratory Animals were followed.
Four micron formalin-fixed sections were deparaffinized in graded xylene and alcohol and rinsed in PBS. To block endogenous peroxidase activity, the sections were incubated in 3% hydrogen peroxide (Sigma). For antigen retrieval, slides were microwaved in citrate buffer followed by blocking with Superblock (ScyTek Laboratories, Logan, Utah) for 10 minutes. Sections were incubated overnight at 4° C. or 1 hour room temperature in the following antibodies: cyclin-D1 (Thermo-Scientific, Fremont, Calif.), Glutamine synthetase, Ki-67, Myc-tag and CD45 (Santa Cruz Biotechnology, Dallas, Tex.). Sections were then incubated with species-specific secondary horseradish peroxidase-conjugated antibody for 30 minutes at room temperature. Sections stained with antibodies were incubated with streptavidin-biotin and signal was detected with DAB. Cell death was evaluated in liver sections by terminal deoxynucleotidyl transferase dUTP nick end labeling (TUNEL) using manufacturer's instructions available with the kit (EMD-Millipore). BrdU was stained with mouse antibody (Becton Dickinson, Franklin Lakes, N.J.) as previously described (Alvarado et al., Gene Expr 2016, 17:19-34). Briefly, tissue sections were deparaffinized, exposed to 0.3% hydrogen peroxide in deionized water for 10 minutes to block endogenous peroxidase, treated with 2N HCl, incubated with trypsin 0.1% for 20 minutes and then with normal goat serum for 20 minutes at room temperature. Sections were then incubated overnight in cold room with anti-BrdU monoclonal antibody, followed by biotinylated goat anti-mouse IgG. DAB kit was then applied, and sections were counterstained with hematoxylin.
For quantification of Ki-67 immunohistochemistry (IHC), pictures were taken at 200× magnification from either tumor or non-tumor areas in the same slide. Each picture was separated into DAB staining channel and hematoxylin staining channel by Color Deconvolution using Imagej Fiji. To quantify the number of Ki-67 positive nuclei on each picture, the DAB staining on the DAB channel was highlighted with the threshold of 48 and then quantified with Analyze Particles. All particles of areas smaller than 100 pixels were excluded. To quantify the total number of nuclei on each picture the hematoxylin staining on the hematoxylin channel was highlighted with the threshold of 205 and then quantified with Analyze Particles with similar exclusion of small areas. The percentage of Ki-67-positive nuclei on each picture was calculated by dividing the number of particles counted from DAB channel by the number of particles counted from the hematoxylin channel. […]

[2] = system: preneoplastic hepatocytes; conditions: resistant-hepatocyte model of hepatocarcinogenesis (T3, rats); Ledda-Columbano 2000, Perra 2009; cited from earlier work

Compound: Cc1cc(OCC(=O)O)cc(C)c1Cc1ccc(O)c(C(C)C)c1 [GC-1, Sobetirome]
- increase in gene expression of deiodinase (RT-PCR, liver) ([1]; 10-days of GC-1-diet vs basal diet): around 10 fold
- increase in gene expression of deiodinase (RT-PCR, liver) ([1]; 21-days of GC-1-diet vs basal diet): around 40 fold
- cyclin-D1 and GS IHC of tumors ([1]; 10 days GC-1 diet): continued to be positive
- tumor foci by H&E and Myc-tag staining ([1]; 10 days GC-1 diet): Smaller and fewer tumor foci
- gross liver appearance ([1]; 10 days GC-1 diet vs basal diet): indistinguishable
- liver weight to body weight ratio (LW/BW) ([1]; 10 days GC-1 diet vs basal diet, p=0.0022): significant decrease
- BrdU and Ki-67 IHC within tumor foci ([1]; 10 days GC-1 vs basal diet): notable decrease
- GS levels, WB ([1]; 10 days GC-1 vs basal diet): modest decreases
- Ki-67-positive cell numbers in non-tumor areas ([1]; 10 days GC-1 vs basal diet): No differences
- TUNEL-positive cells ([1]; 10 days GC-1 vs basal diet): Comparable numbers
- cyclin-D1 levels, WB ([1]; 10 days GC-1 vs basal diet): marginal decreases
- number of CD45-positive cells (inflammation) ([1]; 10 days GC-1 vs basal diet): No differences
- total and active β-catenin levels, WB ([1]; 10 days GC-1 vs basal diet): modest decrease in the levels of total but not active β-catenin
- percentage of Ki-67-positive cells within tumor nodules ([1]; 10 days GC-1 vs basal diet, p<0.01): significant decrease
- p-AKT levels, WB ([1]; 10 days GC-1 vs control): did not have any effect
- p-ERK1 and p-ERK2, WB ([1]; 10 days GC-1 vs control): dramatically decreased
- p-Met (Tyr 1234/1235), WB, two independent antibodies ([1]; 10 days GC-1 vs control): profound decrease
- p-STAT3, WB ([1]; 10 days GC-1 vs control): profound decrease
- total AKT levels, WB ([1]; 10 days GC-1 vs control): no change
- total ERK levels, WB ([1]; 10 days GC-1 vs control): unaffected
- total Met levels, WB ([1]; 10 days GC-1 vs control): modestly decreased
- total STAT3 levels, WB ([1]; 10 days GC-1 vs control): overall reduced
- Myc-tag levels by Western blot ([1]; 21 days GC-1 diet): modest decrease
- cyclin-D1 IHC of tumor nodules ([1]; 21 days GC-1 diet): strongly positive
- gross liver appearance ([1]; 21 days GC-1 diet): relatively smooth surface and smaller nodules
- tumor nodules by H&E and Myc-tag IHC ([1]; 21 days GC-1 diet): notably smaller tumor nodules
- liver weight to body weight ratio (LW/BW) ([1]; 21 days GC-1 diet vs basal diet, p=0.0506): almost significant decrease
- GS levels, WB ([1]; 21 days GC-1 vs basal diet): modest decrease
- Ki-67-positive cells in non-tumor areas ([1]; 21 days GC-1 vs basal diet): insignificant
- cyclin-D1 levels, WB ([1]; 21 days GC-1 vs basal diet): no change
- p-AKT levels, WB ([1]; 21 days GC-1 vs basal diet): comparable levels
- p-Met (Tyr 1234/1235), WB ([1]; 21 days GC-1 vs basal diet): dramatic decrease
- p-STAT3 levels, WB ([1]; 21 days GC-1 vs basal diet): striking decrease
- percentage of Ki-67 positive tumor cells within nodules ([1]; 21 days GC-1 vs basal diet): insignificant differences
- total AKT levels, WB ([1]; 21 days GC-1 vs basal diet): marginally increased
- total Met levels, WB ([1]; 21 days GC-1 vs basal diet): only marginally and variably decreased
- total STAT3 levels, WB ([1]; 21 days GC-1 vs basal diet): relatively unaltered
- total and active β-catenin levels, WB ([1]; 21 days GC-1 vs basal diet): remained unaltered
- total and p-ERK1 and total and p-ERK2, WB ([1]; 21 days GC-1 vs basal diet): notably decreased
- TUNEL-positive cells (cell death) ([1]; 21 days, basal diet vs GC-1): More TUNEL-positive cells were evident in the basal diet group
- Glutamine synthetase (GS) IHC of tumors ([1]; 21 days, both groups): uniformly and comparably positive
- effect on preneoplastic lesions / carcinogenic process [2]: negatively influence the carcinogenic process

From patent US10780069B2, “Use of GC-1 in transplant related population” (University of Pittsburgh—Of the Commonwealth System of …, priority 2017, dated 2020)
